The subject of assay [1] is spontaneous tumors of MMTV-CreBRCA1^f/fp53+/− mice. Put plainly: Tumor growth (relative tumor volume, doubling time) in spontaneous BRCA1-related breast cancer model. Conditions: for tumor doubling time: Compound A 50 or 30 mg/kg/day gavage (pooled), Compound B 50 mg/kg/day i.p., vehicle 5 days; for prolongation of tumor doubling time versus vehicle control: versus 5 days with vehicle. Type of assay: in vivo, mouse. On the procedure:
FIGS. 6A-6D are graphs showing the synergistic effect of a PI3K inhibitor (Compound A) and PARP inhibitor (Compound B) in treating breast cancer. Trendlines (bold lines) were calculated using all data points to determine best fit and show the relative tumor growth in the vehicle control cohort (as in FIG. 6A) and in the Compound A cohort (as in FIG. 6B). The functions of the best-fit curves were used to determine tumor doubling times for all three treatment modalities and controls. Tumor-bearing MMTV-CreBRCA1^f/fp53+/− were treated with either vehicle control (6A); Compound A (6B, 50 mg/kg/day (n=11) or 30 mg/kg/day (n=10)); Compound B (6C, 50 mg/kg/day (n=8)); or the combination of Compound A and Compound B (6D, Compound A 50 mg/kg/day+Compound B 50 mg/kg/day (n=8) or Compound A 30 mg/kg/day+Compound B 50 mg/kg/day (n=7)) and tumor volumes were measured every 2-3 days using calipers.
FIG. 7 is a graph showing the relative tumor volume (RTV) over time of tumor-bearing MMTV-CreBRCA1^f/fp53+/− mice treated with a control vehicle (n=3), PI3Kα-specific inhibitor Compound C alone (n=7), or a combination of pan-PARP inhibitor Compound B and PI3Kα-specific inhibitor Compound C (n=6). The data of the control and Compound C alone treatment groups are represented by trendlines calculated using all data points to determine best fit. The data of the combination treatment group are individually represented.
All animal experiments were conducted in accordance with IACUC-approved protocols at Beth Israel Deaconess Medical Center, Boston, and at the University of Vall d'Hebron, Barcelona, Spain. Female MMTV-CreBRCA1^f/fp53+/− mice were obtained by breeding BRCA1 conditional knockout mice from the NIH repository (01XC8, strain C57BL/6) (Xu et al. Nat. Genet., 22: 37-43, 1999); with MMTV-Cre (Jackson Laboratory B6129-TgN(MMTV-Cre)4Mam) (Wagner et al. Nucleic Acids Res., 25: 4323-4330, 1997) and p53 knockout (Taconic Farms, P53N12-M, C57BL/6) (Donehower et al. Nature, 356: 215-221, 1992). At the time of the study, mice had been inbred for 4 years (>7 generations). The floxed or wild type status of Brca1, the presence of the MMTV-Cre transgene and the p53 heterozygosity were determined by PCR. Mice were examined for the occurrence of tumors twice weekly. When tumormetrics were performed, the length and width of the tumor was determined using calipers, and the tumor volume was determined (width^2×length/2). Tumor volume was used as a measure of growth and was recorded as ratio to tumor volume at diagnosis. Tumor doubling times were calculated using the functions of the best fit curves for all data points in each treatment modality. […]

A further assay concerns HCC1937 and SUM149 cells. Put plainly: Immunoblotting of BRCA1-mutant breast cancer cell lines treated with drugs. The class given is cell-based, human. Particulars: for overall poly-ADP-ribosylation (PAR): Compound B 10 μM; for activation status of EGFR/MAPK pathways: 72 hours treatment, immunoblot. The source says:
The PI3K inhibitor 5-(2,6-dimorpholinopyrimidin-4-yl)-4-(trifluoromethyl)pyridin-2-amine (Compound A) was obtained through a Material Transfer Agreement with Novartis Pharmaceuticals. Olaparib (Compound B) was purchased from LC Laboratories (Woburn, Mass.) and KU-55933 was purchased from Selleck Chemicals (Houston, Tex.). BRCA1-mutant human breast cancer cell line HCC1937 was from American Type Culture Collection; # CRL-2336, and maintained in DMEM/10% FBS and SUM149 was from Division of Signal Transduction, BIDMC, maintained in Ham's F-12 with 5% fetal bovine serum (FBS), 5 μg/ml insulin, 2 μg/ml hydrocortisone, 5 μg/ml gentamicin and 2.5 μg/ml fungizone. Cell lines were authenticated by immunoblotting for BRCA1 and PTEN and tested for absence of mycoplasma.
Cells were treated with mock, 5-(2,6-dimorpholinopyrimidin-4-yl)-4-(trifluoromethyl)pyridin-2-amine (Compound A), 4-[[3-[4-(cyclopropanecarbonyl)piperazine-1-carbonyl]-4-fluorophenyl]methyl]-2H-phthalazin-1-one (Compound B), KU-55933, or the combination and lysed in cell lysis buffer (9803, Cell Signaling) as per the manufacturer's instructions. Immunoblots were performed using the Nupage System (Invitrogen). The protein concentration was determined using Bradford reagent (Biorad). A total of 20 μg of protein were loaded, except for PAR, Phospho ATM and Phospho DNA-PK/PRKDC western blots, where 40 μg were loaded. Tumor tissue lysates were prepared similarly with the exception of tissue homogenization by using an electric homogenizer for 30 secs after addition of the lysis buffer. Primary antibodies used for western blotting were total AKT (9272), Cleaved Caspace 3 (9661), total ERK (4695), Phospho AKT Ser473 (4058), Phospho ERK Thr202/Tyr204 (9106), Phospho-Histone H2AX Ser139 (2577), PTEN (9559) from Cell Signaling. Phospho ATM Ser1981 (2152-1), Phospho DNA-PK/PRKDC Ser2056 (3892-1) from Epitomics, Inc. CD31 (ab28364), Actin (ab6276), INPP4B (ab81269) from Abcam; pADPr (sc56198) from Santacruz Biotechnology; and Ki-67 (RM-9106) was purchased from Thermo Scientific.
(In general: A western blot detects proteins with antibodies after separation by electrophoresis.)

The record followed here is patent publication US20140235630A1, “COMPOSITIONS AND METHODS FOR THE TREATMENT OF PROLIFERATIVE DISEASES” (Beth Israel Deaconess Medical Center, Inc., priority 2011, published 2014).

On to `O=C(c1cc(Cc2n[nH]c(=O)c3ccccc23)ccc1F)N1CCN(C(=O)C2CC2)CC1` [Compound B, 4-[[3-[4-(cyclopropanecarbonyl)piperazine-1-carbonyl]-4-fluorophenyl]methyl]-2H-phthalazin-1-one, reference compound], for which, in assay [1], the tumor doubling time was 16 days and the “prolongation of tumor doubling time versus vehicle control” value is on record as “three-fold”. The “overall poly-ADP-ribosylation (PAR)” value in the assay on HCC1937 and SUM149 cells (24 hours, Compound A 1 μM) is on record as “completely blocked”. Moreover, in the assay on HCC1937 and SUM149 cells, the “activation status of EGFR/MAPK pathways” value was “did not have a discernible effect”.

For `Nc1cc(C(F)(F)F)c(-c2cc(N3CCOCC3)nc(N3CCOCC3)n2)cn1` [Compound A, 5-(2,6-dimorpholinopyrimidin-4-yl)-4-(trifluoromethyl)pyridin-2-amine], in assay [1], the tumor doubling time came out at 26 days and the “prolongation of tumor doubling time versus vehicle control” value was 5 fold. Moreover, the “cleaved caspase 3 (CC3), apoptosis marker” value with HCC1937 and SUM149 cells (24 hours) is given as “remained negative”. In the assay with HCC1937 and SUM149 cells (24 hours, Compound A 1 μM), the “overall poly-ADP-ribosylation (PAR)” value is “dose dependent increase”. In addition, the “H2AX phosphorylation on Serine 139 (γH2AX)” value in the assay with HCC1937 and SUM149 cells (24 hours, Compound A 1 μM, Compound B 10 μM in combination) is on record as “increased with increasing concentrations”. Moreover, the “activation status of EGFR/MAPK pathways” value in the assay on HCC1937 and SUM149 cells is “induced a compensatory activation”. In addition, the “phosphorylation of AKT” value in the assay on HCC1937 and SUM149 cells (increasing concentrations, 24 hours) is “diminishing phosphorylation”.
